Experimental data taken from patent publication US11884670B1, “Pyrido[4′,3′:4,5]pyrrolo[3,2-c][2,7]naphthyridin-10-one compounds as CK2 inhibitors” (KING FAISAL UNIVERSITY, priority 2023, dated 2024).
pIC50: −log10 of the molar value.

How the values were obtained:
[1] = tested on: HL60 (leukemia); assay: In vitro cytotoxic activity (MTT) assay, HL60; type: cell-based; conditions: Homo sapiens, HL-60; HL60 (leukemia) cells, exposed for 96 hours; read-out: IC50, concentration eliciting 50% inhibition of cell proliferation
Description: (§1) Compounds 1-16 were screened for their in vitro cytotoxic activity utilizing a 3-(4,5-dimethyl-thiazol-2-yl)-2,5-diphenyltetrazolium bromide (MTT) assay against selected cancer human cell lines consisting of PC3 (prostate), HCT116 (colon), A375 (melanoma), H1299 (lung), MIAPaCa-2 (pancreas), HL60 (leukemia), MCF7 (breast), MDA-MB-231 (breast) (T. Mosmann, J. Immunol. Meth., 1983, 65, 55-63). The cells were cultured at 37° C. in RMPI1640 medium supplemented with 10% fetal bovine serum, 50 IU/mL penicillin, and 50 μg/mL streptomycin in a 5% CO2 incubator. All cells were sub-cultured 3 times/week by trypsinisation. Viable cells were seeded and allowed to adhere for 12 h before a test drug was added in 96-well plates at an initial density of 1.0×10^5 cells/mL. Tumour cell lines were separately exposed to various concentrations of the tested compounds followed by incubation at a temperature of 37° C. during 96 h inside a medium of fresh RMPI 1640. Cells were subsequently incubated at 37° C. using MTT at 0.5 mg/mL during 4 h. After removal of supernatant, formazan crystals were dissolved in isopropanol and the optical density was measured at 570 nm. CX-4945 was used as a positive control.

[2] = tested on: A375 (melanoma); assay: In vitro cytotoxic activity (MTT) assay, A375; type: cell-based; conditions: Homo sapiens, A-375; A375 (melanoma) cells, exposed for 96 hours; read-out: IC50, concentration eliciting 50% inhibition of cell proliferation
Description: as §1

[3] = tested on: MDA-MB-231 (breast); assay: In vitro cytotoxic activity (MTT) assay, MDA-MB-231; type: cell-based; conditions: Homo sapiens; MDA-MB-231 (breast) cells, exposed for 96 hours; read-out: IC50, concentration eliciting 50% inhibition of cell proliferation
Description: as §1

[4] = tested on: MIAPaCa-2 (pancreas); assay: In vitro cytotoxic activity (MTT) assay, MIAPaCa-2; type: cell-based; conditions: Homo sapiens, MIA PaCa-2; MIAPaCa-2 (pancreas) cells, exposed for 96 hours; read-out: IC50, concentration eliciting 50% inhibition of cell proliferation
Description: as §1

[5] = tested on: HCT116 (colon); assay: In vitro cytotoxic activity (MTT) assay, HCT116; type: cell-based; conditions: Homo sapiens, HCT-116; HCT116 (colon) cells, exposed for 96 hours; read-out: IC50, concentration eliciting 50% inhibition of cell proliferation
Description: as §1

[6] = tested on: H1299 (lung); assay: In vitro cytotoxic activity (MTT) assay, H1299; type: cell-based; conditions: Homo sapiens, NCI-H1299; H1299 (lung) cells, exposed for 96 hours; read-out: IC50, concentration eliciting 50% inhibition of cell proliferation
Description: as §1

[7] = tested on: PC3 (prostate); assay: In vitro cytotoxic activity (MTT) assay, PC3; type: cell-based; conditions: Homo sapiens, Prostate cell; PC3 (prostate) cells, exposed for 96 hours; read-out: IC50, concentration eliciting 50% inhibition of cell proliferation
Description: as §1

[8] = tested on: MCF7 (breast); assay: In vitro cytotoxic activity (MTT) assay, MCF7; type: cell-based; conditions: Homo sapiens; MCF7 (breast) cells, exposed for 96 hours; read-out: IC50, concentration eliciting 50% inhibition of cell proliferation
Description: as §1

[9] = biological target: T1, recombinant human CK2 (RRββ-holoenzyme) (Homo sapiens, UniProt P68400); assay: CK2 kinase assay (33P-ATP, substrate peptide RRRDDDSDDD); type: biochemical; conditions: final ATP concentration 15 μM, 10 min at 30° C.; read-out: protein kinase CK2 IC50
T1 construct: purchased Millipore
T1 sequence (P68400 whole entry): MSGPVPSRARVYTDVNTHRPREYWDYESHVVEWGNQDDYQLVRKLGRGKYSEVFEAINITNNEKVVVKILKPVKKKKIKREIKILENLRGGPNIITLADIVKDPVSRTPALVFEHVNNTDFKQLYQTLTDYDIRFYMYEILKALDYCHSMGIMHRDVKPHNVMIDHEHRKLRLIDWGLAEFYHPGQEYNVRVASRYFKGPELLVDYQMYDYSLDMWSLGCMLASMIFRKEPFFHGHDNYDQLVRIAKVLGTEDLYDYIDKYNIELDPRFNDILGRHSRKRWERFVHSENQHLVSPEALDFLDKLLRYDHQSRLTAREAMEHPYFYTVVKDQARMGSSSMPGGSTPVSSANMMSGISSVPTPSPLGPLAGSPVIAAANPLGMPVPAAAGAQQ
T1 sequence (P67870 whole entry partner): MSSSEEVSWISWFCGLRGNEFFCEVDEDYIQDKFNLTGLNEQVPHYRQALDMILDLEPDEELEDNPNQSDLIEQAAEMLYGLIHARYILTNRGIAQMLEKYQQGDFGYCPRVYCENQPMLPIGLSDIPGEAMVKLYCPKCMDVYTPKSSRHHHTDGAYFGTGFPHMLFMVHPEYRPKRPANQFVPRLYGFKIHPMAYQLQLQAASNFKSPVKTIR
Description: CK2 Kinase Assay was conducted using the protocol as described in Pierre F. et al; J. Med. Chem. 2011, 54, 635-654. The tested compounds in aqueous solution were added at a volume of 10 μL to a reaction mixture comprising 10 μL of assay dilution buffer (ADB; 20 mM MOPS, pH 7.2, 25 mM β-glycerol phosphate, 5 mM EGTA, 1 mM sodium orthovanadate, and 1 mM dithiothreitol), 10 μL of substrate peptide (RRRDDDSDDD, dissolved in ADB at a concentration of 1 mM), 10 μL of recombinant human CK2 (RRββ-holoenzyme, 25 ng dissolved in ADB; Millipore). Reactions were initiated by the addition of 10 μL of ATP solution (90% 75 mMMgCl2, 75 μM ATP (final ATP concentration: 15 μM) dissolved in ADB; 10% [γ-33P] ATP (stock 1 mCi/100 μL; 3000 Ci/mmol (Perkin-Elmer) and maintained for 10 min at 30° C. The reactions were quenched with 100 μL of 0.75% phosphoric acid and then transferred to and filtered through a phosphor cellulose filter plate (Millipore). After washing each well five times with 0.75% phosphoric acid, the plate was dried under vacuum for 5 min and, following the addition of 15 μL of scintillation fluid to each well, the residual radioactivity was measured using a Wallac […] counter. The IC50 values were derived from eight concentrations of test inhibitors.

O=c1[nH]ccc2c1[nH]c1c3ccncc3c(Nc3cccc(Cl)c3)nc21 [Compound 1, 5-((3-chlorophenyl)amino)-9,11-dihydro-10H-pyrido[4′,3′:4,5]pyrrolo[3,2-c][2,7]naphthyridin-10-one]
pIC50 [1]: 5.47
pIC50 [2]: 5.48
pIC50 [3]: 5.32
pIC50 [4]: 5.77
pIC50 [5]: 5.72
pIC50 [6]: 6.00
pIC50 [7]: 5.68
pIC50 [8]: 5.21
pIC50 [9]: 7.42
